Values after ≈ are worked out from the molar mass of the structure shown.
Assays:
[1] = tested on: mouse Leukemia L1210; assay: Inhibition of proliferation of mouse leukemia L1210 cells; type: cell-based; settings: 48 h; mouse leukemia L1210, 37° C, 2 days
Protocol: (§1) A cell suspension containing cells of mouse Leukemia L1210, mouse Leukemia P388, mouse Leukemia EL4, mouse IMC carcinoma or human lung cancer LX-1 cells in a culture medium containing 10% calf serum at a cell density of 1 x 10^5 cells/ml was prepared, and 200 μl-portion of the cell suspension so prepared was placed in a microplate and then added with a solution of MI43-37F11 substance at varying concentrations (dissolved in a mixture of water and dimethylsulfoxide (95:5)). The cell suspension containing the test compound added was subsequently incubated at 37° C for 2 days (but 5 days for the LX-1 cells).
(§2) After the incubation, the number of the cells of the L1210 cells, P388 cells, the EL4 cells and the IMC carcinoma cells in the treated groups was counted by means of Coulter-counter. The control group (untreated) of the cell suspension to which the test compound was not added was incubated in the same way as above and then the number of the cells was similarly counted.
(§3) Rate (%) of inhibition of the cell proliferation of the treated group against that of the control group (untreated) was evaluated. […]

[2] = tested on: mouse Leukemia P388; assay: Inhibition of proliferation of mouse leukemia P388 cells; type: cell-based; settings: 48 h; mouse leukemia P388, 37° C, 2 days
Protocol: as §1, §2, §3

[3] = tested on: Ehrlich carcinoma; assay: Therapeutic treatment of Ehrlich carcinoma-bearing mice by oral administration; type: in vivo, ICR mice; settings: days 1-9, 14th day; for Weight of tumor (mg ± S.D.): control 1,084 ± 256
Protocol: On the 15th day after the transplantation of the carcinoma cells, the mass of the tumor (carcinoma) was surgically removed out of each mouse and weighed. The rate of the reduction in the weight of the tumor (carcinoma) obtained from the group of mice treated with MI43-37F11 substance was evaluated in term of the rate (%) of inhibition, with such an assumption that the weight of the tumor obtained from the control group of mice was amounting to 100. In other words, the rate (%) of inhibition to the growth of Ehrlich carcinoma was calculated according to the following equation [formula] where C means the weight of the tumor in the control group of mice (untreated) and T means the weight of the tumor of the treated group of mice.
(b) Another experiments for therapeutic treatment of Ehrlich carcinoma-bearing mice were conducted by oral administration of MI43-37F11 substance. Thus, the cell suspension of Ehrlich ascites carcinoma cells was subcutaneously inoculated at the abdominal region of ICR mice (female, 6-week old, 5 mice in each treated group) so that the number of the carcinoma cells as subcutaneously implanted was 2×10^6 cells per mouse. The MI43-37F11 substance was orally administered to the mice of the treated group at a dosage of 6.3 mg/kg, 12.5 mg/kg, 25 mg/kg, […] or 100 mg/kg once a day during the consecutive 9 days from the 1st day to the 9th day after the implantation of the carcinoma cells. On the 14th day after the implantation of the carcinoma cells, the mass of the tumor (carcinoma) was surgically removed out of each mouse and weighed. The weight of the tumor obtained from the treated group of mice was compared with the weight of the tumor obtained from the control group of mice (untreated), by calculating the rate (%) of inhibition according to the same equation as above.

[4] = tested on: interleukin-1; assay: Enhancement of the production of interleukin-1 in vivo (uptake of 3H-TdR by D10.G4.1 cells); parameters: species or system CDF1 mice
Protocol: (5) Experiments for estimation of the activity of the antibiotic MI43-37F11 substance to enhance the production of interleukin-1 in vivo was conducted by the following procedure. Thus, MI43-37F11 substance was orally administered to CDF1 mice (female, 6-week old) B at a dosage of 25 mg/kg. One day, 3 days, 5 days and […] the administration, peritoneal exudate cells (PEC) and spleen cells were respectively harvested from the mice of the treated group. The peritoneal exudate cells and spleen cells as harvested were independently divided into two classes, namely the class of the adherent cell which was adherent in its nature to the wall of a plastic dish and the class of the non-adherent cell. The whole peritoneal exudate cells (PEC), the adherent cells of PEC and the adherent cells of the spleen cell were separately suspended into aliquots of a culture medium to give a cell concentrations of 1×10^6 cells/well, 2×10^6 cells/well and 2.5×10^6 cells/well, respectively. After the incubation for 24 hours, the supernatants were collected by filtration of the incubated culture media and then assayed for their activity of interleukin-1 (IL-1) according to the method of Jonathan K. et al (see "Lymphokine Research" 3 (4), 175-182, (1984)). Namely, 100 μl of each supernatant obtained as above and Concanavalin A (to a final concentration of 2.5 μg/ml) were added to 100 μl of a cell suspension containing 1 x 10^5 cells/m(of D10.G4.1. cells which will proliferate in the presence of Concanavalin A plus interleukin-1 when the latter compounds are given. The resulting mixture was then incubated for 48 hours and then added with ^3 H-thymidine (^3 H-TdR), followed by further incubation for 16 hours. After this, the rate of uptake of ^3 H-TdR by the D10.G4.1. cells was determined in term of the radio-activity unit of c.p.m. The rate of uptake of ^3 H-TdR in the control group of mice (untreated) was also determined in the same manner as above.

**Q.** `COc1cc(O)c2c(=O)oc(CO)cc2c1` [MI43-37F11 substance] was tested. Which IC50 [1] did it give?
**A.** The IC50 was 50 µg/mL (≈ 225 µM).

**Q.** What about the IC50 [2] of the same compound?
**A.** Its IC50 is 50 µg/mL (≈ 225 µM).

**Q.** And the “Rate (%) of Inhibition” value ([3]; 6.3 mg/kg/day oral)?
**A.** The value was 45%.

**Q.** What about the “Weight of tumor (mg ± S.D.)” value ([3]; 6.3 mg/kg/day oral, *P < 0.05) of the same compound?
**A.** The value was 586 ± 282 mg.

**Q.** What about the “Rate (%) of Inhibition” value ([3]; 12.5 mg/kg/day oral) of the same compound?
**A.** Its value is 63%.

**Q.** What about the “Weight of tumor (mg ± S.D.)” value ([3]; 12.5 mg/kg/day oral, **P < 0.01) of the same compound?
**A.** The value was 391 ± 266 mg.

**Q.** And the “Rate (%) of Inhibition” value ([3]; 25.0 mg/kg/day oral)?
**A.** Its value is 74%.

**Q.** What about the “Weight of tumor (mg ± S.D.)” value ([3]; 25.0 mg/kg/day oral, ***P < 0.001) of the same compound?
**A.** The value was 280 ± 152 mg.

**Q.** What about the “Rate (%) of Inhibition” value ([3]; 50.0 mg/kg/day oral) of the same compound?
**A.** The value was 55%.

**Q.** And the “Weight of tumor (mg ± S.D.)” value ([3]; 50.0 mg/kg/day oral, **P < 0.01)?
**A.** The value was 485 ± 123 mg.

**Q.** What about the “Rate (%) of Inhibition” value ([3]; 100.0 mg/kg/day oral) of the same compound?
**A.** Its value is 47%.

**Q.** And the “Weight of tumor (mg ± S.D.)” value ([3]; 100.0 mg/kg/day oral, **P < 0.01)?
**A.** Its value is 566 ± 421 mg.

**Q.** What about the “Uptake of 3H-TdR, T/C %” value ([4]; adherent cell in PEC, 1 day after 25 mg/kg oral) of the same compound?
**A.** The value was 165.8%.

**Q.** What about the “Uptake of 3H-TdR, c.p.m. ± S.D.” value ([4]; adherent cell in PEC, 1 day after 25 mg/kg oral, control 10561 ± 1241, **) of the same compound?
**A.** Its value is 17510 ± 810 c.p.m.

**Q.** What about the “Uptake of 3H-TdR, T/C %” value ([4]; adherent cell in PEC, 3 days after 25 mg/kg oral) of the same compound?
**A.** Its value is 131.7%.

**Q.** And the “Uptake of 3H-TdR, c.p.m. ± S.D.” value ([4]; adherent cell in PEC, 3 days after 25 mg/kg oral, control 10561 ± 1241, **)?
**A.** Its value is 13912 ± 1367 c.p.m.

**Q.** And the “Uptake of 3H-TdR, T/C %” value ([4]; adherent cell in PEC, 5 days after 25 mg/kg oral)?
**A.** Its value is 253.4%.

**Q.** What about the “Uptake of 3H-TdR, c.p.m. ± S.D.” value ([4]; adherent cell in PEC, 5 days after 25 mg/kg oral, control 10561 ± 1241, ***) of the same compound?
**A.** The value was 26759 ± 3601 c.p.m.

**Q.** What about the “Uptake of 3H-TdR, T/C %” value ([4]; adherent cell in PEC, 7 days after 25 mg/kg oral) of the same compound?
**A.** The value was 167.0%.

**Q.** What about the “Uptake of 3H-TdR, c.p.m. ± S.D.” value ([4]; adherent cell in PEC, 7 days after 25 mg/kg oral, control 10561 ± 1241, *) of the same compound?
**A.** The value was 17639 ± 2699 c.p.m.

**Q.** What about the “Uptake of 3H-TdR, T/C %” value ([4]; adherent cell in spleen cells, 1 day after 25 mg/kg oral) of the same compound?
**A.** The value was 83.3%.

**Q.** What about the “Uptake of 3H-TdR, c.p.m. ± S.D.” value ([4]; adherent cell in spleen cells, 1 day after 25 mg/kg oral, control 2091 ± 481) of the same compound?
**A.** The value was 1741 ± 352 c.p.m.

**Q.** And the “Uptake of 3H-TdR, T/C %” value ([4]; adherent cell in spleen cells, 3 days after 25 mg/kg oral)?
**A.** The value was 232.8%.

**Q.** And the “Uptake of 3H-TdR, c.p.m. ± S.D.” value ([4]; adherent cell in spleen cells, 3 days after 25 mg/kg oral, control 2091 ± 481, **)?
**A.** The value was 4868 ± 497 c.p.m.

**Q.** And the “Uptake of 3H-TdR, T/C %” value ([4]; adherent cell in spleen cells, 5 days after 25 mg/kg oral)?
**A.** The value was 102.3%.

**Q.** And the “Uptake of 3H-TdR, c.p.m. ± S.D.” value ([4]; adherent cell in spleen cells, 5 days after 25 mg/kg oral, control 2091 ± 481)?
**A.** The value was 2140 ± 121 c.p.m.

**Q.** And the “Uptake of 3H-TdR, T/C %” value ([4]; adherent cell in spleen cells, 7 days after 25 mg/kg oral)?
**A.** The value was 114.1%.

**Q.** What about the “Uptake of 3H-TdR, c.p.m. ± S.D.” value ([4]; adherent cell in spleen cells, 7 days after 25 mg/kg oral, control 2091 ± 481) of the same compound?
**A.** The value was 2385 ± 134 c.p.m.

**Q.** What about the “enhance the in vivo production of interleukin-1” value ([4]; summary in words) of the same compound?
**A.** Its value is “effective”.

**Q.** And the “Uptake of 3H-TdR, T/C %” value ([4]; whole PEC, 1 day after 25 mg/kg oral)?
**A.** Its value is 61.3%.

**Q.** And the “Uptake of 3H-TdR, c.p.m. ± S.D.” value ([4]; whole PEC, 1 day after 25 mg/kg oral, control 7166 ± 752, **)?
**A.** Its value is 4393 ± 397 c.p.m.

**Q.** And the “Uptake of 3H-TdR, T/C %” value ([4]; whole PEC, 3 days after 25 mg/kg oral)?
**A.** The value was 83.6%.

**Q.** And the “Uptake of 3H-TdR, c.p.m. ± S.D.” value ([4]; whole PEC, 3 days after 25 mg/kg oral, control 7166 ± 752)?
**A.** Its value is 5988 ± 602 c.p.m.

**Q.** And the “Uptake of 3H-TdR, T/C %” value ([4]; whole PEC, 5 days after 25 mg/kg oral)?
**A.** The value was 391.7%.

**Q.** And the “Uptake of 3H-TdR, c.p.m. ± S.D.” value ([4]; whole PEC, 5 days after 25 mg/kg oral, control 7166 ± 752, ***)?
**A.** The value was 28072 ± 1174 c.p.m.

**Q.** And the “Uptake of 3H-TdR, T/C %” value ([4]; whole PEC, 7 days after 25 mg/kg oral)?
**A.** The value was 54.5%.

Source: patent publication US5096924A, “Anticancer antibiotic MI43-37F11 substance” (501 Azidan Hojin Biseibutsu Kagaku Kenkyu Kai, priority 1989, dated 1992)
